Laboratory results: patent US6737383B1, “Herbicidal oxadiazolidines” (priority 1999, dated 2004)

Columns and labels:
crabgrass = assay: Test B pre/postemergence crabgrass; assay type: in vivo, Digitaria sanguinalis
In short: (§1)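 Response is a visual 0-to-10 score relative to untreated plants, where 0 means no effect and 10 means complete control, taken twelve to sixteen days after application. Treatments went onto soil at planting and onto foliage of 1- to 4-leaf plants, using a surfactant-containing non-phytotoxic solvent.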

purple nutsedge = assay: Test B pre/postemergence purple nutsedge; assay type: in vivo, Cyperus rotundus
In short: as §1

velvetleaf = assay: Test B pre/postemergence velvetleaf; assay type: in vivo, Abutilon theophrasti
In short: as §1

wheat = assay: Test B pre/postemergence wheat; assay type: in vivo, Triticum aestivum
In short: as §1

rape = assay: Test B pre/postemergence rape; assay type: in vivo, Brassica napus
In short: as §1

wild oat = assay: Test B pre/postemergence wild oat; assay type: in vivo, Avena fatua
In short: as §1

blackgrass = assay: Test B pre/postemergence blackgrass; assay type: in vivo, Alopecurus myosuroides
In short: as §1

sugar beet = assay: Test B pre/postemergence sugar beet; assay type: in vivo, Beta vulgaris
In short: as §1

pigweed = assay: Test B pre/postemergence pigweed; assay type: in vivo, Amaranthus retroflexus
In short: as §1

surinam grass = assay: Test B pre/postemergence surinam grass; assay type: in vivo, Brachiaria decumbens
In short: as §1

morningglory = assay: Test B pre/postemergence morningglory; assay type: in vivo, Ipomoea hederacea
In short: as §1

giant foxtail = assay: Test B pre/postemergence giant foxtail; assay type: in vivo, Setaria faberii
In short: as §1

cocklebur = assay: Test B pre/postemergence cocklebur; assay type: in vivo, Xanthium strumarium
In short: as §1

soybean = assay: Test B pre/postemergence soybean; assay type: in vivo, Glycine max
In short: as §1

bedstraw = assay: Test B pre/postemergence bedstraw; assay type: in vivo, Galium aparine
In short: as §1

corn = assay: Test B pre/postemergence corn; assay type: in vivo, Zea mays
In short: as §1

[1] = Postemergence, Rate 62 g/ha, scale 0 to 10, 0 is no effect, 10 is complete control
[2] = Postemergence, Rate 125 g/ha, scale of 0 to 10 where 0 is no effect and 10 is complete control
[3] = Preemergence, Rate 125 g/ha, scale of 0 to 10 where 0 is no effect and 10 is complete control
[4] = Preemergence, Rate 250 g/ha, scale 0 (no effect) to 10 (complete control)
[5] = Rate 62 g/ha, Preemergence, scale 0 to 10
[6] = Rate 250 g/ha, Postemergence, scale 0 to 10, 0 is no effect, 10 is complete control
[7] = Rate 500 g/ha, Postemergence, scale 0 to 10, 0 is no effect, 10 is complete control
[8] = Rate 500 g/ha, Preemergence, scale 0 to 10 (0 no effect, 10 complete control)

CC(C)N(C(=O)n1oc(=O)n(C(C)C2=NOCC2)c1=O)c1ccc(Cl)cc1 (racemic) [Compound 759]
Plant response rating, Crabgrass (crabgrass; [1]): 2 | Crabgrass plant response rating (crabgrass; [2]): 4 | Plant response rating, Crabgrass (crabgrass; [3]): 7 | Crabgrass plant response rating (crabgrass; [4]): 8 | Crabgrass plant response rating (crabgrass; [5]): 7 | Crabgrass plant response rating (crabgrass; [6]): 8 | Crabgrass plant response rating (crabgrass; [7]): 8 | Crabgrass plant response rating (crabgrass; [8]): 9 | Plant response rating, Nutsedge (purple nutsedge; [1]): 0 | Nutsedge plant response rating (purple nutsedge; [2]): 0 | Plant response rating, Nutsedge (purple nutsedge; [3]): 0 | Nutsedge plant response rating (purple nutsedge; [4]): 0 | Nutsedge plant response rating (purple nutsedge; [5]): 0 | Nutsedge plant response rating (purple nutsedge; [6]): 0 | Nutsedge plant response rating (purple nutsedge; [7]): 0 | Nutsedge plant response rating (purple nutsedge; [8]): 0 | Plant response rating, Velvetleaf (velvetleaf; [1]): 2 | Plant response rating, Velvetleaf (velvetleaf; [3]): 0 | Velvetleaf plant response rating (velvetleaf; [4]): 0 | Velvetleaf plant response rating (velvetleaf; [5]): 0 | Velvetleaf plant response rating (velvetleaf; [6]): 6 | Velvetleaf plant response rating (velvetleaf; [7]): 6 | Velvetleaf plant response rating (velvetleaf; [8]): 0 | Plant response rating, Wheat (wheat; [1]): 0 | Plant response rating, Wheat (wheat; [3]): 2 | Wheat plant response rating (wheat; [4]): 3 | Wheat plant response rating (wheat; [5]): 0 | Wheat plant response rating (wheat; [6]): 0 | Wheat plant response rating (wheat; [7]): 0 | Wheat plant response rating (wheat; [8]): 8 | Plant response rating, Rape (rape; [1]): 0 | Rape plant response rating (rape; [2]): 0 | Plant response rating, Rape (rape; [3]): 0 | Rape plant response rating (rape; [4]): 0 | Rape plant response rating (rape; [5]): 0 | Rape plant response rating (rape; [6]): 0 | Rape plant response rating (rape; [7]): 0 | Rape plant response rating (rape; [8]): 4 | Plant response rating, Wild oats (wild oat; [1]): 0 | Plant response rating, Wild oats (wild oat; [3]): 4 | Wild oats plant response rating (wild oat; [4]): 5 | Wild oats plant response rating (wild oat; [5]): 0 | Wild oats plant response rating (wild oat; [6]): 2 | Wild oats plant response rating (wild oat; [7]): 3 | Wild oats plant response rating (wild oat; [8]): 8 | Plant response rating, Blackgrass (blackgrass; [1]): 4 | Blackgrass plant response rating (blackgrass; [2]): 5 | Plant response rating, Blackgrass (blackgrass; [3]): 5 | Blackgrass plant response rating (blackgrass; [4]): 5 | Blackgrass plant response rating (blackgrass; [5]): 4 | Blackgrass plant response rating (blackgrass; [6]): 7 | Blackgrass plant response rating (blackgrass; [7]): 8 | Blackgrass plant response rating (blackgrass; [8]): 8 | Plant response rating, Sugarbeets (sugar beet; [1]): 0 | Plant response rating, Sugarbeets (sugar beet; [3]): 0 | Sugarbeets plant response rating (sugar beet; [4]): 4 | Sugarbeets plant response rating (sugar beet; [5]): 0 | Sugarbeets plant response rating (sugar beet; [6]): 0 | Sugarbeets plant response rating (sugar beet; [7]): 0 | Sugarbeets plant response rating (sugar beet; [8]): 5 | Plant response rating, Redroot pigweed (pigweed; [1]): 0 | Redroot pigweed plant response rating (pigweed; [2]): 0 | Plant response rating, Redroot pigweed (pigweed; [3]): 2 | Redroot pigweed plant response rating (pigweed; [4]): 3 | Redroot pigweed plant response rating (pigweed; [5]): 0 | Redroot pigweed plant response rating (pigweed; [6]): 0 | Redroot pigweed plant response rating (pigweed; [7]): 4 | Redroot pigweed plant response rating (pigweed; [8]): 4 | Plant response rating, B. signalgrass (surinam grass; [1]): 0 | B. signalgrass plant response rating (surinam grass; [2]): 3 | B. signalgrass plant response rating (surinam grass; Preemergence, Rate 62 g/ha, scale of 0 to 10 where 0 is no effect and 10 is complete control): 3 | Plant response rating, B. signalgrass (surinam grass; [3]): 3 | B. signalgrass plant response rating (surinam grass; [4]): 8 | B. signalgrass plant response rating (surinam grass; [6]): 6 | B. signalgrass plant response rating (surinam grass; [7]): 7 | B. signalgrass plant response rating (surinam grass; [8]): 8 | Plant response rating, Morningglory (morningglory; [1]): 3 | Morningglory plant response rating (morningglory; [2]): 3 | Plant response rating, Morningglory (morningglory; [3]): 0 | Morningglory plant response rating (morningglory; [4]): 0 | Morningglory plant response rating (morningglory; [5]): 0 | Morningglory plant response rating (morningglory; [6]): 3 | Morningglory plant response rating (morningglory; [7]): 4 | Morningglory plant response rating (morningglory; [8]): 0 | Plant response rating, Giant foxtail (giant foxtail; [1]): 3 | Giant foxtail plant response rating (giant foxtail; [2]): 5 | Plant response rating, Giant foxtail (giant foxtail; [3]): 9 | Giant foxtail plant response rating (giant foxtail; [4]): 10 | Giant foxtail plant response rating (giant foxtail; [5]): 9 | Giant foxtail plant response rating (giant foxtail; [6]): 8 | Giant foxtail plant response rating (giant foxtail; [7]): 8 | Giant foxtail plant response rating (giant foxtail; [8]): 10 | Plant response rating, Cocklebur (cocklebur; [1]): 0 | Cocklebur plant response rating (cocklebur; [2]): 0 | Plant response rating, Cocklebur (cocklebur; [3]): 0 | Cocklebur plant response rating (cocklebur; [4]): 0 | Cocklebur plant response rating (cocklebur; [5]): 0 | Cocklebur plant response rating (cocklebur; [6]): 1 | Cocklebur plant response rating (cocklebur; [7]): 2 | Cocklebur plant response rating (cocklebur; [8]): 0 | Plant response rating, Soybean (soybean; [1]): 3 | Plant response rating, Soybean (soybean; [3]): 0 | Soybean plant response rating (soybean; [4]): 0 | Soybean plant response rating (soybean; [5]): 0 | Soybean plant response rating (soybean; [6]): 3 | Soybean plant response rating (soybean; [7]): 3 | Soybean plant response rating (soybean; [8]): 0 | Plant response rating, Bedstraw (bedstraw; [1]): 0 | Plant response rating, Bedstraw (bedstraw; [3]): 0 | Bedstraw plant response rating (bedstraw; [4]): 0 | Bedstraw plant response rating (bedstraw; [5]): 0 | Bedstraw plant response rating (bedstraw; [8]): 0 | Plant response rating, Corn (corn; [1]): 0 | Corn plant response rating (corn; [2]): 0 | Plant response rating, Corn (corn; [3]): 0 | Corn plant response rating (corn; [4]): 0 | Corn plant response rating (corn; [5]): 0 | Corn plant response rating (corn; [6]): 0 | Corn plant response rating (corn; [7]): 0 | Corn plant response rating (corn; [8]): 0
